B1: BMP7: TGFβ superfamily member that acts through distinct receptors and Smad proteins (protein, UniProt P18075 293-431, looked up)
Bone morphogenetic protein 7: STGSKQRSQNRSKTPKNQEALRMANVAENSSSDQRQACKKHELYVSFRDLGWQDWIIAPEGYAAYYCEGECAFPLNSYMNATNHAIVQTLVHFINPETVPKPCCAPTQLNAISVLYFDDSSNVILKKYRNMVVRACGCH

How the values were obtained:
E-cadherin = E-cadherin immunofluorescence at cell junctions after EMT; type: cell-based, mouse; details: 100 pM TGF-β1 72 h, then inhibitors for an additional 36 hours; 5 μM SB431542, 5 μM SB203580, 5 μM Y27632, 15 μM SP600125
Procedure: FIG. 6: E-cadherin is restored by combining TβRI kinase inhibitor with either the ROCK inhibitor or the p38 MAPK inhibitor. E-cadherin is found between mTEC-KO cells (A). mTEC-KO cells were treated with 100 pM TGF-β1 for 72 hours to induce mesenchymal state in which E-cadherin is lost (B). Single inhibitors or combinations of two inhibitors were added for an additional 36 hours. […] E-cadherin reformed between cells that used combination kinase inhibitors which included 5 μM SB431542 with 5 μM SB203580 (G), 5 μM Y27632 (H), but not 15 μM SP600125 (I). Cell lysates from mTEC-KOs were analyzed by western blot using antibodies to E-cadherin and β-tubulin (J). Control epithelial cells were grown without TGF-β (Lane 3). The cells were then treated for an additional 48 hours with no inhibitor (Lane 2), single inhibitors (5 μM Y27632, Lane 6; 5 μM SB203580, Lane 7; 5 μM SB431542, Lane 8) or with the combination of 5 μM SB431542 with either 15 μM SP600125 (Lane 1), 5 μM Y27632 (Lane 4) or 5 μM SB203580 (Lane 5).
(§1) Cells were seeded on glass cover slips (Fisher) and cultured as described above. Cells were treated, fixed in 4% paraformaldehyde, and permeabilized in PBS containing 0.1% Triton X-100 for 10 min. Nonspecific sites were blocked with 10% BSA or normal goat serum for 30 min. F-actin was stained at a 1:1000 dilution in 2% BSA of Texas Red-conjugated phalloidin (Sigma) and incubated for 30 min. E-cadherin (BD Biosciences) was diluted at 1:200 in 2% normal goat serum and a secondary antibody (Molecular Probes) at a 1:500 dilution was used for detection. All washes were done in 1× PBS.
An important criterion for epithelium restoration is re-expression of the cell-cell junction adhesion protein E-cadherin. mTEC-KO cells were treated with 100pm TGF-β1 for 72 hours to induce EMT and then kinase inhibitors were added for an additional 24-48 hours (FIG. 6).

MMP-9 = MMP-9 mRNA by quantitative RT-PCR after EMT; type: cell-based, mouse; details: 100 pM TGF-β1 72 h, then inhibitor(s) for an additional 24 hours
Procedure: (§2) FIG. 5: Restoration of epithelial gene expression patterns by kinase inhibitors illustrates a requirement for two kinase inhibitors to restore cadherin expression. mTEC-KO cells were treated with 100 pm TGF-β1 for 72 hours to induce EMT. Single kinase inhibitors or inhibitor combinations were added, cells were grown for an additional 24 hours and harvested for preparation of RNA. Ksp-cadherin (A), SM22 (B), and MMP-9 (C) mRNA levels were measured by quanitative RT-PCR. Significant differences between the untreated (No TGF-β1) cells versus cells treated with TGF-β1 or with TGF-β1 followed by inhibitor are indicated with an asterisk (*) (P<0.05, n=9). Significant differences between single inhibitors versus combination inhibitors are indicated by a letter (a,b,c) over the bar showing the combination. Each letter refers to the single inhibitor in the graph (indicated by the letter below the name of the inhibitor).
(§3) In a six well plate, 50,000 cells were seeded and appropriately treated. Total RNA was isolated using RNAeasy Miniprep kit (Qiagen) and quantified by UV spectrophotometer. 1.5 μg of RNA was converted by reverse transcriptase into cDNA using the OmniScript kit (Qiagen). Primers used for Q-PCR were: KSP-Cadherin forward-5′ CTG CAC ACA GM GTC CCT GA 3′, reverse 5′ CCTTGTCGCCACTAGAAAGC 3′; MMP-9-SuperArray (Frederick, Md.) PPM03661A; SM22 forward 5′GCA GTC CM MT TGA GM GA 3′, reverse 5′ CTGTTGCTGCCCATTTGAAG 3′; PAI-1 forward 5′TTCAGCCCTTGCTTGCCTC 3′, reverse 5′[…] 3′. cDNA was amplified in an Opticon 2 PCR machine (MJ Research) and labeled by the DyNAmo SYBR Green qPCR Kit. The amplification was carried out in the following manner: initial denaturation for 10 min at 95° C., denaturation for 10 sec at 95° C., annealing for 30 sec at the appropriate temperature, and extension for 30 sec at 72° C. Standards were created from Pfu (Stratagene) amplified PCR products purified by gel purification. Glyceraldehyde-3-phosphate dehydrogenase (GAPDH) was used as an internal control to normalize gene expression. […]

Ksp-cadherin = Ksp-cadherin mRNA by quantitative RT-PCR after EMT; type: cell-based, mouse; details: 100 pM TGF-β1 72 h, then inhibitor(s) for an additional 24 hours
Procedure: In a six well plate, 50,000 cells were seeded and appropriately treated. Total RNA was isolated using RNAeasy Miniprep kit (Qiagen) and quantified by UV spectrophotometer. 1.5 μg of RNA was converted by reverse transcriptase into cDNA using the OmniScript kit (Qiagen). […] 3′. cDNA was amplified in an Opticon 2 PCR machine (MJ Research) and labeled by the DyNAmo SYBR Green qPCR Kit. The amplification was carried out in the following manner: initial denaturation for 10 min at 95° C., denaturation for 10 sec at 95° C., annealing for 30 sec at the appropriate temperature, and extension for 30 sec at 72° C. Standards were created from Pfu (Stratagene) amplified PCR products purified by gel purification. Glyceraldehyde-3-phosphate dehydrogenase (GAPDH) was used as an internal control to normalize gene expression.
The effects of individual or combinations of kinase inhibitors on the expression of several genes altered by EMT were measured by quantitative RT-PCR.

mTEC-KO cells [1] = experiment: Reversal of mesenchymal actin cytoskeleton, F-actin phalloidin staining; type: cell-based, mouse; details: 100 pM TGF-β1 72 h, then inhibitor 24 h; 5 μM SB431542, 1 μM SB203580, 1 μM Y27632, 10 μM U0126, 15 μM SP600125
Procedure: Renal tubular epithelial cells (mTEC-KOs) were treated with 100 pm TGF-β1 for 72 hours and then kinase inhibitors were added for an additional 24 hours. The F-actin in the cells was visualized by staining with phalloidin. mTEC-KO cells were treated with a single kinase inhibitor (A-E) or with SB431542 plus a second kinase inhibitor (F-I). Single kinase inhibitors and concentrations were: 5 μM SB431542 (A), 1 μM SB203580 (B), 1 μM Y27632 (C), 10 μM U0126 (D), or 15 μM SP600125 (E). Combination kinase inhibitors included 5 μM SB431542 with 1 μM SB203580 (F), 1 μM Y27632 (G), 10 μM U0126 (H) or 15 μM SP600125 (I). […] White arrows point to stress fibers.
as §1
To examine the reversibility of the EMT induced by TGF-β1 in mTEC-KO cells, we added inhibitors of kinases previously implicated in EMT. Cells were treated with 100 pM TGF-β1 for 72 hours to induce EMT and kinase inhibitors were added for an additional 24 hours. […] To assess the effects of the kinase inhibitors on EMT, the actin cytoskeleton was examined by phalloidin staining.
Since EMT effects are mediated by multiple cellular pathways and none of the single kinase inhibitors reverted the EMT phenotype, we applied combinations of two inhibitors. […] Cortical actin bordering the cell-cell junctions was restored by both combinations. The addition of either the MEK1 inhibitor or the JNK inhibitor to the […] inhibitor had no detectable effect on the mesenchymal phenotype of the cells (FIGS. 4H and I).

SM22 = SM22 mRNA by quantitative RT-PCR after EMT; type: cell-based, mouse; details: 100 pM TGF-β1 72 h, then inhibitor(s) for an additional 24 hours
Procedure: as §2, §3

mTEC-KO cells [2] = experiment: Blocking of TGF-β1-induced EMT (cell morphology, phalloidin staining); type: cell-based, mouse; details: 10 μM SB431542 together with TGF-β1 for 72 hours
Procedure: FIG. 1: TGF-β1 induces EMT in renal tubular epithelial cells. mTEC-KOs were incubated for 72 hours without TGF-β1 (A,D), with 100 pM TGF-β1 (B, E) or with TGF-β1 and 10 μM SB431542. Cell morphology was observed by brightfield phase microscopy at 100× magnification (A-C). […] White arrows point to stress fibers.
TGF-β knockout Murine Renal Epithelial Tubular Cells (mTEC-KO) were maintained in Renal Epithelial Cell Growth Medium (Cambrex, Md.) containing 0.25% Fetal Bovine serum (FBS), supplemented with a Bullet Kit that contained: epidermal growth factor, insulin, hydrocortisone, GA-1000, epinephrine, T3, transferrin (Cambrex), as well as penicillin and streptomycin (Gibco) in a 37° humidified 5% CO2 incubator.
as §1, with “PBS. […]” for “PBS.”

PAI-1 = PAI-1 mRNA expression by quantitative RT-PCR in TGFβ-induced mesenchymal cells; type: cell-based, mouse; details: 100 pM TGF-β1 72 hours, then 5 uM inhibitor for 24 hours
Procedure: TGFβ1 ligand (100 pM) was added to mTEC-KOs for 72 hours, followed by the addition of 5 μM SB431542 plus 100 pM TGFβ1 for an additional time 24 hours. Cell lysates were used to prepare RNA which was examined by quantitative RT-PCR for PAI-1. Significant differences in PAI-1 expression level between cells treated with TGF-β1 alone versus cells treated with TGF-β1 and then with inhibitor for the indicated times are indicated with an asterisk (*) (P<0.05, n=9).
as §3, with “C.” for “C. Standards were created from Pfu (Stratagene) amplified PCR products purified by gel purification. Glyceraldehyde-3-phosphate dehydrogenase (GAPDH) was used as an internal control to normalize gene expression.”

[3] = cited from earlier work
[4] = 300 ug/kg human BMP7 every other day beginning at week three; cited from earlier work
[5] = system: mouse distal tubular epithelial cells; details: 100 ng/ml BMP7 for 48 hours; cited from earlier work

Molecule | E-cadherin at cell junctions (localization) (E-cadherin) | MMP-9 mRNA level (MMP-9) | Ksp-cadherin mRNA level (Ksp-cadherin) | reversal of mesenchymal actin stress fiber morphology, single kinase inhibitor (mTEC-KO cells [1]) | SM22 mRNA level (SM22) | also measured
C[S+]([O-])c1ccc(-c2nc(-c3ccncc3)c(-c3ccc(F)cc3)[nH]2)cc1 (stereo not shown) [SB203580] | caused an increase in reforming E-cadherin at cell junctions | did not reduce SM22 or MMP9 transcript levels | led to a further decrease in Ksp-cadherin expression | fail to reverse the mesenchymal actin cytoskeleton | did not reduce SM22 or MMP9 transcript levels | –
NC(=O)c1ccc(-c2nc(-c3ccc4c(c3)OCO4)c(-c3ccccn3)[nH]2)cc1 [SB431542] | caused an increase in reforming E-cadherin at cell junctions | efficiently reduced SM22 and MMP-9 expression to pre-EMT levels | increased Ksp-cadherin to intermediate levels | did not reverse the mesenchymal actin stress fiber morphology | efficiently reduced SM22 and MMP-9 expression to pre-EMT levels | TGF-β1-induced transition of epithelial cells into mesenchymal cells (mTEC-KO cells [2]): blocked the TGF-β1-induced transition of the mTEC-KO epithelial cells into mesenchymal cells; actin stress fibers (phalloidin) when inhibitor is given with TGF-β1 (mTEC-KO cells [2]): very few actin stress fibers were observed; PAI-1 mRNA level (PAI-1): sufficient to reduce the mRNA level
N#CC(=C(/N)Sc1ccccc1N)/C(C#N)=C(\N)Sc1ccccc1N [U0126] | – | – | – | fail to reverse the mesenchymal actin cytoskeleton | – | –
C[C@@H](N)[C@H]1CC[C@H](C(=O)Nc2ccncc2)CC1 [Y27632] | caused an increase in reforming E-cadherin at cell junctions | increased the level of MMP9 expression | increased Ksp-cadherin to intermediate levels | fail to reverse the mesenchymal actin cytoskeleton | partially reduced SM22 levels | –
HGF: hepatocyte growth factor | – | – | – | – | – | reversal of EMT in vivo [3]: only provided a partial reversal of EMT
B1 | – | – | – | – | – | renal pathology (mortality, renal function) [4]: reversed the renal pathology as indicated by a decline in mortality, and improvement in renal function; reversal of TGF-β1 induced EMT (E-cadherin expression, epithelial morphology) [5]: reversed

From patent publication US20060234911A1, “Method of reversing epithelial mesenchymal transition” (priority 2005, published 2006)
